In PMC5797729, “Structure/Function Studies of the α4 Subunit Reveal Evolutionary Loss of a GlyR Subtype Involved in Startle and Escape Responses” (Frontiers in Molecular Neuroscience, 2018):

Tests used:
[1] = biological target: T1, Mouse α4 GlyR (Mus musculus, UniProt Q61603); experiment: whole-cell patch clamp, Hill fit; type: cell-based
T1 construct: gene Glra4; full-length wild-type cDNA from whole brain in pRK5, homomeric pentamer, HEK293 cells
T1 sequence (Q61603 28-456): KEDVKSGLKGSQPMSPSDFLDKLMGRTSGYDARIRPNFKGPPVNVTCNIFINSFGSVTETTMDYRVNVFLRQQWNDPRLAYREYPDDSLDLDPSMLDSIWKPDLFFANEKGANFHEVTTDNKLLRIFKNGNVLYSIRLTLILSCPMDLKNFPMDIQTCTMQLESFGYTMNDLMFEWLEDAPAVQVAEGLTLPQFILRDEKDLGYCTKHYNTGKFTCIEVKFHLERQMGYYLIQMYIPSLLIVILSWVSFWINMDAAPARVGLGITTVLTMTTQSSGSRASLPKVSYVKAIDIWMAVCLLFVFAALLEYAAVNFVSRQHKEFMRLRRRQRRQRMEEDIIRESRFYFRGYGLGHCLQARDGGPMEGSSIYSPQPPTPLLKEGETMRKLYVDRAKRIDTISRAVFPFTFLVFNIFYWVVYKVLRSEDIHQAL
Description: whole-cell patch clamp, Hill fit on Mouse α4 GlyR

[2] = biological target: T2, Gorilla α4 GlyR (Gorilla gorilla, UniProt G3RDJ8); experiment: whole-cell patch clamp, Hill fit; type: cell-based
T2 construct: gene GLRA4; full-length synthetic predicted cDNA in pRK5, homomeric pentamer, HEK293 cells
T2 sequence (G3RDJ8 29-457): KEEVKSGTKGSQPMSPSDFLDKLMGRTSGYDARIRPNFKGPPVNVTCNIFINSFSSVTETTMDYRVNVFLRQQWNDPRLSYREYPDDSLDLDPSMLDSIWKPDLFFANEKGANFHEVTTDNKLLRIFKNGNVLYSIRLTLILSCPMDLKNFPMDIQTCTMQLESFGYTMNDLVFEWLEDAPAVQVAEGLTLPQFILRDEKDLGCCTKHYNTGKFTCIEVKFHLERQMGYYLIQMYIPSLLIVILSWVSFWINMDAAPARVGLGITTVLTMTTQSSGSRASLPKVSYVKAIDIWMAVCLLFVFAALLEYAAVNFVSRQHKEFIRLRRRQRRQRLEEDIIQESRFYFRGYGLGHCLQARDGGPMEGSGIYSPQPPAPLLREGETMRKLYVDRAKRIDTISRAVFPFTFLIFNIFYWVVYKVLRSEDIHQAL
Description: whole-cell patch clamp, Hill fit on Gorilla α4 GlyR

[3] = system: T3, Human α4^K59E/C204Y + α1; details: agonist; -40 mV; pH 7.4; 22 °C
T3 construct: gene GLRA1
Description: whole-cell patch clamp, Hill fit on Human α4^K59E/C204Y + α1

NCC(=O)O [glycine]
EC50 [1]: 61 ± 10 µM
EC50 [2]: 86 ± 16 µM
EC50 [3]: 350 ± 29 µM
